Results reported in patent US20080262097A1, “Formulations” (priority 2005, published 2008).
≈ marks a conversion by molar mass, not a printed value.

Legend:
S. aureus ATCC 29213 [1] = test: MIC assay; format: cell-based, Staphylococcus aureus; conditions: S. aureus ATCC 29213; Table 1 (Example 1)
Method: 1. Staphylococcus aureus—the principal staphylococcal test micro-organism used in these studies was Staphylococcus aureus ATCC 29213. This strain is the one recommended for QC/QA purposes in Minimum Inhibitory Concentration (MIC) assays by the US Clinical and Laboratory Standards Institute (formerly the NCCLS), an FDA-recognised body. […] The staphylococci and enterococci were cultured and maintained on Mueller-Hinton Medium (agar and broth) at pH 7.2; they were incubated aerobically at 37° C. for 24 hours. This is a standard international method for quantitatively assessing the antimicrobial activity of a compound in a liquid medium. The method used a 96-well microtitre plate, capable of holding about 200 μl of liquid per well. […] The culture media were as described above for the relevant test organisms. The wells were inoculated with a liquid suspension of freshly grown micro-organism and incubated under the conditions described above. After incubation, the microtitre plate was examined visually (with the aid of a light box) for cell pellets in and/or opaque wells, which would indicate microbial growth. The MIC value was recorded as the lowest concentration of test compound required to inhibit microbial growth, ie, the lowest concentration for which the liquid in the well remained clear. The assays were conducted in duplicate and included both negative (culture medium only) and positive (culture medium, diluting solvent and inoculum) controls.

S. aureus ATCC 29213 [2] = test: MBC assay; format: cell-based, Staphylococcus aureus; conditions: S. aureus ATCC 29213; Table 1 (Example 1)
Method: 1. Staphylococcus aureus—the principal staphylococcal test micro-organism used in these studies was Staphylococcus aureus ATCC 29213. This strain is the one recommended for QC/QA purposes in Minimum Inhibitory Concentration (MIC) assays by the US Clinical and Laboratory Standards Institute (formerly the NCCLS), an FDA-recognised body. […] The staphylococci and enterococci were cultured and maintained on Mueller-Hinton Medium (agar and broth) at pH 7.2; they were incubated aerobically at 37° C. for 24 hours. This assay, normally carried out after an MIC assay, determines the minimum concentration of a compound that is lethal to the micro-organism being tested. […] These samples were then individually sub-cultured on non-selective agar medium, under the incubation conditions described above. Following incubation they were examined visually for bacterial growth.

S. aureus ATCC 29213 [3] = test: Disc diffusion assay (DDA); format: cell-based, Staphylococcus aureus; conditions: Table 1, zone diameter, 200 μg per disc (thymoquinone 50 μg)
Excerpt: 1. Staphylococcus aureus—the principal staphylococcal test micro-organism used in these studies was Staphylococcus aureus ATCC 29213. This strain is the one recommended for QC/QA purposes in Minimum Inhibitory Concentration (MIC) assays by the US Clinical and Laboratory Standards Institute (formerly the NCCLS), an FDA-recognised body. S. aureus ATCC 29213 is susceptible to beta-lactam antibiotics such as methicillin and to many other antibiotics in clinical use worldwide today. The staphylococci and enterococci were cultured and maintained on Mueller-Hinton Medium (agar and broth) at pH 7.2; they were incubated aerobically at 37° C. for 24 hours. A sterile paper disc was impregnated with a sample of the test compound and a minimum of 30 minutes allowed for the solvents to evaporate as far as possible. The disc was then placed on an agar plate onto which the test micro-organism had been inoculated. The plate was then incubated under the conditions described above, following which it was examined visually for signs of bacterial growth. If the test compound had antimicrobial activity, a circular zone of no growth would be obtained around the disc. The diameter of this zone of “inhibition” was measured using a ProtoCOL™ automated zone sizer (Synbiosis, Cambridge, UK). In general, a greater diameter and/or area of the zone of inhibition indicates a greater antimicrobial activity in the relevant test compound, although other factors such as test compound mobility through the agar gel may also influence the result. […] The exceptions were the thymoquinone assays, in which only 50 μg of the benzoquinone was used.

S. aureus ATCC 29213 [4] = test: Synergy disc diffusion assay (SDDA); format: cell-based, Staphylococcus aureus; conditions: for SDDA area increase / SDDA increase: quinone + BP; for SDDA area increase: over larger single-compound zone; for SDDA increase: over larger single-compound zone diameter; for SDDA with BP: quinone combined with BP on one disc, 200 μg of each (thymoquinone 50 μg)
Excerpt: 1. Staphylococcus aureus—the principal staphylococcal test micro-organism used in these studies was Staphylococcus aureus ATCC 29213. This strain is the one recommended for QC/QA purposes in Minimum Inhibitory Concentration (MIC) assays by the US Clinical and Laboratory Standards Institute (formerly the NCCLS), an FDA-recognised body. S. aureus ATCC 29213 is susceptible to beta-lactam antibiotics such as methicillin and to many other antibiotics in clinical use worldwide today. The staphylococci and enterococci were cultured and maintained on Mueller-Hinton Medium (agar and broth) at pH 7.2; they were incubated aerobically at 37° C. for 24 hours. This is a variation on the DDA method, in which two compounds are tested together for their combined antimicrobial activity. It provides a qualitative indication as to whether the compounds are likely to interact synergistically. Two test compounds A and B were placed on a single paper disc and the above described DDA procedure repeated. An increase in diameter of the zone of inhibition, compared to the greater of the zone diameters for the two compounds individually, was taken to indicate potential antimicrobial synergy. […] The larger the increase in zone size, the greater the likelihood of a synergistic interaction between the two test compounds. Each of the quinones was then subjected, in combination with BP, to the SDDA assay described above. In each case, increases in zone diameter (mm) and area (%) were measured with respect to those observed for the compound showing the larger zone diameters during the previous disc diffusion assays on the individual compounds. […] The exceptions were the thymoquinone assays, in which only 50 μg of the benzoquinone was used.

S. aureus ATCC 29213 [5] = test: Supplemented disc diffusion assay (DDA + salt, lipid or blood); format: cell-based, Staphylococcus aureus; conditions: 200 μg per disc (thymoquinone 50 μg); for DDA + blood: agar supplemented with blood; for DDA + lipid: agar supplemented with lipid; for DDA + salt: agar supplemented with salt
Method: The staphylococci and enterococci were cultured and maintained on Mueller-Hinton Medium (agar and broth) at pH 7.2; they were incubated aerobically at 37° C. for 24 hours. A sterile paper disc was impregnated with a sample of the test compound and a minimum of 30 minutes allowed for the solvents to evaporate as far as possible. The disc was then placed on an agar plate onto which the test micro-organism had been inoculated. The plate was then incubated under the conditions described above, following which it was examined visually for signs of bacterial growth. If the test compound had antimicrobial activity, a circular zone of no growth would be obtained around the disc. The diameter of this zone of “inhibition” was measured using a ProtoCOL™ automated zone sizer (Synbiosis, Cambridge, UK). In general, a greater diameter and/or area of the zone of inhibition indicates a greater antimicrobial activity in the relevant test compound, although other factors such as test compound mobility through the agar gel may also influence the result. Either the DDA or the SDDA tests may be carried out using an agar gel supplemented with blood, lipid and/or salt to simulate some of the major components present in human skin and to assess whether these substances might reduce the antimicrobial activity observed for the test compounds. Performance under these conditions can provide a more reliable indication of activity on topical application. […] MIC, MBC and DDA assays, as described above, were carried out using the test compound benzoyl peroxide (BP) and a range of different benzoquinones and hydroquinones. Supplemented DDA assays, in the presence of salt, lipid and blood, were also conducted. […] The exceptions were the thymoquinone assays, in which only 50 μg of the benzoquinone was used.

P. acnes NCTC 737 [6] = test: Disc diffusion assay (DDA); format: cell-based, Propionibacterium acnes; conditions: Table 11 (Example 9), 200 μg per disc, mean of three replicates
Method: (§1) 2. Propionibacterium spp.—the principal propionibacterial strain used in these studies was Propionibacterium acnes NCTC 737.
(§2) The Propionibacterium spp organisms were cultured and maintained on Wilkins-Chalgren Anaerobe Medium (agar and broth) at pH 6.0; cultures were incubated anaerobically at 37° C. for 72 hours.
A sterile paper disc was impregnated with a sample of the test compound and a minimum of 30 minutes allowed for the solvents to evaporate as far as possible. The disc was then placed on an agar plate onto which the test micro-organism had been inoculated. The plate was then incubated under the conditions described above, following which it was examined visually for signs of bacterial growth. […] The diameter of this zone of “inhibition” was measured using a ProtoCOL™ automated zone sizer (Synbiosis, Cambridge, UK).
The area of the zone of inhibition was calculated from the measured zone diameter (D) using the formula π(D/2)^2.
(§3) For all (S)DDA assays, 200 μg of each compound was loaded onto each disc.

P. acnes NCTC 737 [7] = test: Synergy disc diffusion assay (SDDA); format: cell-based, Propionibacterium acnes; conditions: for SDDA area increase / SDDA increase: peroxide + TBHQ; for SDDA area increase: over larger single-compound zone; for SDDA increase: over larger single-compound zone diameter; for SDDA with TBHQ: peroxide combined with TBHQ on one disc, 200 μg of each
Method: as §1, §2
This is a variation on the DDA method, in which two compounds are tested together for their combined antimicrobial activity. It provides a qualitative indication as to whether the compounds are likely to interact synergistically.
Two test compounds A and B were placed on a single paper disc and the above described DDA procedure repeated.
Each of the quinones was then subjected, in combination with BP, to the SDDA assay described above.
as §3

| Structure (SMILES) | MIC (S. aureus ATCC 29213 [1]) | MBC (S. aureus ATCC 29213 [2]) | DDA (S. aureus ATCC 29213 [3]) | SDDA area increase (S. aureus ATCC 29213 [4]) | SDDA increase (S. aureus ATCC 29213 [4]) | SDDA with BP (S. aureus ATCC 29213 [4]) | DDA + blood (S. aureus ATCC 29213 [5]) | DDA + lipid (S. aureus ATCC 29213 [5]) | DDA + salt (S. aureus ATCC 29213 [5]) | DDA (P. acnes NCTC 737 [6]) | SDDA area increase (P. acnes NCTC 737 [7]) | SDDA increase (P. acnes NCTC 737 [7]) | SDDA with TBHQ (P. acnes NCTC 737 [7]) |
| --- | --- | --- | --- | --- | --- | --- | --- | --- | --- | --- | --- | --- | --- |
| Cc1cc(O)ccc1O [2-methyl-p-hydroquinone] | 15.6 µg/mL (≈ 126 µM) | 15.6 µg/mL (≈ 126 µM) | 25.70 mm | 62.56% | 7.07 mm | 32.77 mm | 18.74 mm | 24.68 mm | 22.49 mm |  |  |  |  |
| [Ca+2].[O-][O-] [calcium peroxide] |  |  |  |  |  |  |  |  |  | 0.0 mm | 544.48% | 23.08 mm | 38.08 mm |
| [Mg+2].[O-][O-] [magnesium peroxide] |  |  |  |  |  |  |  |  |  | 0.0 mm | 523.33% | 22.45 mm | 37.45 mm |
| [Na+].[Na+].[O-][O-] [sodium peroxide] |  |  |  |  |  |  |  |  |  | 0.0 mm | 128.21% | 7.66 mm | 22.66 mm |
| CC(C)(C)OO [t-butyl hydroperoxide] |  |  |  |  |  |  |  |  |  | 0.0 mm | 188.77% | 10.49 mm | 25.49 mm |
| Cc1cc(O)c(C(C)C)cc1O [thymohydroquinone, 2-iso-propyl-5-methyl-p-hydroquinone] | 7.8 µg/mL (≈ 46.9 µM) | 15.6 µg/mL (≈ 93.9 µM) | 57.62 mm | 70.26% | 17.56 mm | 75.18 mm | 10.27 mm | 41.71 mm | 57.59 mm |  |  |  |  |
